Test results published in US20250057859A1, “CANNABICHROMENEQUINONE AND ANALOGUES THEREOF, AND METHOD OF USING COMPOSITIONS THEREOF AS ANTI-INFLAMMATORY AGENTS” (Juva Life, Inc., priority 2021, published 2025).

molecular target: T1, Recombinant human ALOX15 (Arachidonate 15-Lipoxygenase) (Homo sapiens, UniProt P16050); assay: Biochemical LOX-15 assay; details: not given
T1 construct: full length encompassing amino acids 2-662(end); FLAG (N); purchased BPS Biosciences 50220
T1 sequence (P16050 2-662): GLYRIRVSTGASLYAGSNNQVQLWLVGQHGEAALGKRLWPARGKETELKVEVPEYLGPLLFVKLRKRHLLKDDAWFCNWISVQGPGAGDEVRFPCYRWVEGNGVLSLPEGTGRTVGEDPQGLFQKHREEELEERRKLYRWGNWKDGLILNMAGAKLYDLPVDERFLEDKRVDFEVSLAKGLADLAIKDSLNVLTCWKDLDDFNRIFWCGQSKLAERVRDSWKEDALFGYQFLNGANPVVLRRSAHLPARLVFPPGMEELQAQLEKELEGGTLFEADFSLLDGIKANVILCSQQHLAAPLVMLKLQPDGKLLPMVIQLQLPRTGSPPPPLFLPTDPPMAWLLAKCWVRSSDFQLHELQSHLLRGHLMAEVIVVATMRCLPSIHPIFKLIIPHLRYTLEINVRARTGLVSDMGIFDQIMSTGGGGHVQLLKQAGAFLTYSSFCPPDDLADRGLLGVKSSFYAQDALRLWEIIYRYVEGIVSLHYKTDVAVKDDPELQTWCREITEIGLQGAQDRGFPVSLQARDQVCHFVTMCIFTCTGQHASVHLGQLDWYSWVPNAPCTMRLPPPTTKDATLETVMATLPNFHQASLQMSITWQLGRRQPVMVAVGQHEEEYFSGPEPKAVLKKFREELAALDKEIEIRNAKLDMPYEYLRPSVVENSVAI
From the text: • Recombinant human ALOX15 (Arachidonate 15-Lipoxygenase), full length encompassing amino acids 2-662(end). In this construct the N-terminal end of ALOX15 is fused with a FLAG tag was obtained from BPS Biosciences (Cat #50220). • Dihydrorhodamine 123, DHR, was obtained from Sigma (Cat #1054) • Arachidonic acid, AA, was obtained from Sigma (Cat #A3611) • Other reagents: black 384 well assay plates were obtained from Corning (Cat #3820). • Equipment: Synergy Neo2 Multi-mode plate reader (Biotek), Labcyte 550 acoustic dispenser (Labcyte), Biomek FX robotic dispenser (Beckman Coulter), Sorvall Legend RT centrifuge (Kendro).
The LOX-15 assay was performed in assay buffer comprising: 50 mM Tris (pH 7.5),), 5 uM DHR, 50 uM AA, and 50 nM recombinant enzyme. Serially diluted compounds were prepared in DMSO in Echo qualified 384 well plates. An assay buffer was then prepared without supplemented 10 uM DHRA. 10 uL of the supplemented buffer was dispensed into control (no enzyme) wells in the black 384well assay plate. Next, a 2× enzyme solution was prepared, comprising 100 nM LOX-15 enzyme in the supplemented assay buffer. 10 uL of the 2× enzyme solution was then dispensed into test wells in the black 384well assay plate. Serially diluted compounds were added to the assay plate by acoustic dispensing (Labcyte 550). Control wells received DMSO only.
Next, the 2× substrate was prepared to comprise 100 uM arachidonic acid in the assay buffer. 10 uL of the 2× substrate was then added to all wells in the assay plate. The plate was incubated for 3 hours. The plate was read on Synergy Neo2 in fluorescence mode: excitation 485 nm, emission 530 nm. % inhibition and the resulting IC50 was calculated for the compound using the following equation:
[formula] • where RFU100% is fluorescence in control samples without compound, RFU0% is fluorescence in control samples without LOX-15, and RFUcompound fluorescence in a sample with compound.
The calculated %-Inh values were plotted against compound concentration. To determine IC50 values, dose-response curves were fitted by a 4-parameter sigmoid inhibition model using XLFit® software (IDBS).

CC(C)=CCCC1(C)C=CC2=C(O1)C(=O)c1ccccc1C2=O (centres unmarked) [Formula XXVII] was tested, and the IC50 was > 10 µM.

same assay, conditions: 50 nM recombinant enzyme, 50 uM AA; read-out: 15-Lox inhibitory activity IC50

First: CCCCCc1cc(O)c2c(c1O)OC(C)(CCC=C(C)C)C=C2 (centres unmarked) [Formula XXII]
Second: CCCCCc1cc(OC)c2c(c1OC)OC(C)(CCC=C(C)C)C=C2 (centres unmarked) [Formula XXIV]
The IC50 of the first is lower: 1.22 µM for the first, > 10 µM for the second.

First: CCCCCC1=CC(=O)C2=C(O[C@](C)(CCC=C(C)C)C=C2)C1=O [Formula XXVI]
Second: CCCCCC1=CC(=O)C2=C(OC(C)(CCC=C(C)C)C=C2)C1=O (centres unmarked) [Formula II]
The IC50 of the first is 2.8-fold lower: 1.93 µM for the first, 5.4 µM for the second.

Going from CCCCCC1=C(NCC)C(=O)C2=C(OC(C)(CCC=C(C)C)C=C2)C1=O (centres unmarked) [Formula XXVIII] to CCCCCC1=C(NCCC)C(=O)C2=C(OC(C)(CCC=C(C)C)C=C2)C1=O (centres unmarked) [Formula XXV], the IC50 falls from > 10 µM to 5.7 µM.

For CCCCCc1cc(OC(C)=O)c2c(c1OC(C)=O)OC(C)(CCC=C(C)C)C=C2 (centres unmarked) [Formula XXIII], the IC50 was > 10 µM.
